Source: patent US20250303006A1, “BIOCOMPATIBLE ANTISEPTIC COMPOSITION CONTAINING 9-HYDROXYCALABAXANTHONE AND/OR RELATED XANTHONES” (UNIVERSITAT DE LES ILLES BALEARS, priority 2022, published 2025)

What was measured:
P. aeruginosa = P. aeruginosa culture and proliferation assay; format: cell-based, Pseudomonas aeruginosa; details: 0.003% HCX, 3 h
Method: P. aeruginosa ATCC 27853 was grown from frozen stocks in LB broth (Scharlab), at 37° C. under aerobic conditions in an orbital shaker (180 rpm). After overnight incubation, 1 mL of bacterial suspensions were incubated with different concentrations of CHX (0.01, 0.005, 0.003, 0.001, 0.0001%) and HCX (0.003, 0.002, 0.001, 0.0002, 0.00002%) for 3 hours at 37° C. under aerobic conditions in an orbital shaker (180 rpm). Bacterial suspension without treatment served as negative control (C−). The optical density (OD) was measured at 600 nm at 0 h and 3 h to determine bacterial proliferation (PowerWave Ht). The bacterial growth rate (μ) was calculated during the exponential growth phase following the equation ln ODt−ln OD0=μ×(t−t0) (n=3).

C. acnes = C. acnes culture and proliferation assay; format: cell-based, Cutibacterium acnes; details: 0.0002% HCX, 24 h
Method: C. acnes 5684 (CECT, Valencia, Spain) was grown on Tryptic soy broth (TSB) (Scharlab), supplemented with 0.5 g/I L-Cysteine hydrochloride (Thermo Fisher Scientific), 1.0 mg/I hemin (Thermo Fisher Scientific) and 5.0 mg/I glucose (Scharlab) under anaerobic conditions (10% H2, 10% CO2 and 80% N2) achieved with an Oxoid Anaerogen™ sachet (Thermo Fisher Scientific) at 37° C. for 48 h. After overnight incubation, 1 mL of C. acnes was incubated with different concentrations of CHX (0.01, 0.005, 0.003, 0.001%) and HCX (0.003, 0.002, 0.001, 0.0002%) for 24 hours at 37° C. under anaerobic conditions achieved with an Oxoid Anaerogen™ sachet. Bacterial suspension without treatment served as negative control (C−). The optical density (OD) was measured at 600 nm at 0 h and 24 h to determine bacterial proliferation (PowerWave Ht). The bacterial growth rate (μ) was calculated during the exponential growth phase following the equation ln ODt−ln OD0=μ×(t−t0) (n=4). The live/Dead ratio of bacteria was determined using the LIVE/DEAD BacLight bacterial viability kit (Invitrogen), following the manufacturer's instructions. The assays were carried out in triplicate.

`COc1c(O)cc2oc3cc4c(c(O)c3c(=O)c2c1CC=C(C)C)C=CC(C)(C)O4` [HCX, 9-hydroxycalabaxanthone] showed a bacteria eliminated (P. aeruginosa) of 32% and a bacteria eliminated (C. acnes) of 96%.
